Molecular target: T1, reTAPON1-LIKE (Trichoderma atroviride, UniProt A0A4D6GQM1)
T1 construct: 30-aa signal peptide removed (438-residue ORF, 1317 bp), N-terminal GST tag kept (pGEX-4T-1), E. coli Origami B (DE3), about 71 kDa fusion
Type: biochemical
Conditions: 25 °C

Compound | Km [µM]
CCOP(=O)(OCC)Oc1nc(Cl)c(Cl)cc1Cl [Chlorpyrifos-oxon] | 320 ± 50
COP(=O)(OC)OC=C(Cl)Cl [Dichlorvos, 2,2-dichlorovinyl dimethyl phosphate] | 230 ± 20
CCOC(=O)CC(SP(=O)(OC)OC)C(=O)OCC (centres unmarked) [Malaoxon] | 720 ± 10
COC(=O)C=C(C)OP(=O)(OC)OC [Mevinphos] | 440 ± 40
CNC(=O)CSP(=O)(OC)OC [Omethoate] | 790 ± 120
